Source: article PMC8609307 (2021)

Assays:
[1] = system: EC-136, Cy3-Cy5 dual-labeled (RNA, riboswitch, azido-uridine analog at 14) GUUCUCAACGGGGUGCCACGCGUACGCGUGCGCUGAGAAAAUACCCGUCGAACCUGAUCCGGAUAACGCCGGCGAAGGGAUUUGAGGCUCCUUCUCAAGUCCUUUGCCACUCUUUUUUGAGGUGCAAAGUGUUAAA; assay: smFRET; conditions: 20 mM MgCl2, 20 mM NaCl; poor folding at 1 mM TPP; none at 10 µM TPP
[2] = system: EC-88 G37C, Cy3-Cy5 dual-labeled (RNA, riboswitch, azido-uridine analog at 14) GUUCUCAACGGGGUGCCACGCGUACGCGUGCGCUGACAAAAUACCCGUCGAACCUGAUCCGGAUAACGCCGGCGAAGGGAUUUGAGGC; assay: smFRET; conditions: 20 mM MgCl2, 20 mM NaCl; tested at 1 mM TPP
[3] = system: 117-nt transcript without RNAP, Cy3-Cy5 dual-labeled (RNA, riboswitch, azido-uridine analog at 14) GUUCUCAACGGGGUGCCACGCGUACGCGUGCGCUGAGAAAAUACCCGUCGAACCUGAUCCGGAUAACGCCGGCGAAGGGAUUUGAGGCUCCUUCUCAAGUCCUUUGCCACUCUUUUU; assay: smFRET; conditions: 20 mM MgCl2, 20 mM NaCl; tested at 1 mM TPP; no RNAP
[4] = system: EC-28, Cy3-Cy5 dual-labeled (RNA, riboswitch, azido-uridine analog at 14) GUUCUCAACGGGGUGCCACGCGUACGCG; assay: smFRET; conditions: 20 mM MgCl2, 20 mM NaCl; tested at 1 mM TPP
[5] = system: EC-83 nascent transcript (RNA, riboswitch) GUUCUCAACGGGGUGCCACGCGUACGCGUGCGCUGAGAAAAUACCCGUCGAACCUGAUCCGGAUAACGCCGGCGAAGGGAUUU; assay: RNase H cleavage protection; conditions: 20 mM MgCl2, 20 mM NaCl (transcription buffer); stalled at pause site 83; Kswitch plot Figure 2D
[6] = system: EC-117, Cy3-Cy5 dual-labeled (RNA, riboswitch, azido-uridine analog at 14) GUUCUCAACGGGGUGCCACGCGUACGCGUGCGCUGAGAAAAUACCCGUCGAACCUGAUCCGGAUAACGCCGGCGAAGGGAUUUGAGGCUCCUUCUCAAGUCCUUUGCCACUCUUUUU; assay: smFRET; conditions: 20 mM MgCl2, 20 mM NaCl; 1 mM and 10 µM TPP
[7] = system: EC-104, Cy3-Cy5 dual-labeled (RNA, riboswitch, azido-uridine analog at 14) GUUCUCAACGGGGUGCCACGCGUACGCGUGCGCUGAGAAAAUACCCGUCGAACCUGAUCCGGAUAACGCCGGCGAAGGGAUUUGAGGCUCCUUCUCAAGUCCUU; assay: smFRET; conditions: 20 mM MgCl2, 20 mM NaCl; 1 mM TPP
[8] = system: EC-88 WT, Cy3-Cy5 dual-labeled (RNA, riboswitch, azido-uridine analog at 14) GUUCUCAACGGGGUGCCACGCGUACGCGUGCGCUGAGAAAAUACCCGUCGAACCUGAUCCGGAUAACGCCGGCGAAGGGAUUUGAGGC; assay: smFRET; conditions: 20 mM MgCl2, 20 mM NaCl; 1 mM TPP

binding [1]: weak
binding [2]: no
binding [3]: no
binding [4]: no
binding [5]: no
binding [6]: yes
binding [7]: yes
binding [8]: yes
SMILES: Cc1ncc(C[n+]2csc(CCOP(=O)(O)OP(=O)(O)O)c2C)c(N)n1
